According to PubChem BioAssay (NCI):
Where “and” joins values, the source holds several entries; their conditions need not be identical. Identical values can stand only once.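 Assay format: 96-well plates, 48-hour exposure. Here, GI50 denotes the concentration required for 50% inhibition of growth. The concentration for full growth arrest is given as TGI.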

How the values were obtained:
Assay in all cases: DTP human tumour cell line panel, 48 h
[1] = test system: SW-620 colon
[2] = test system: UACC-257 melanoma
[3] = test system: SF-539 CNS
[4] = test system: 786-0 renal
[5] = test system: ACHN renal
[6] = test system: SK-OV-3 ovarian
[7] = test system: SN12C renal
[8] = test system: UO-31 renal
[9] = test system: OVCAR-4 ovarian
[10] = test system: SF-268 CNS

| SMILES | TGI [1] | TGI [2] | TGI [3] | TGI [4] | TGI [5] | TGI [6] | TGI [7] | TGI [8] | TGI [9] | TGI [10] | GI50 [1] | GI50 [2] | GI50 [3] | GI50 [4] | GI50 [5] | GI50 [6] | GI50 [7] | GI50 [8] | GI50 [9] | GI50 [10] |
| --- | --- | --- | --- | --- | --- | --- | --- | --- | --- | --- | --- | --- | --- | --- | --- | --- | --- | --- | --- | --- |
| O=C(c1ccc(Cl)cc1)c1cnc(Nc2ccccc2Cl)s1 | > 100 µM | 47.2 µM | 55.3 µM | 39.1 µM | 35.3 µM | 52 µM | 52.1 µM | 50.1 µM | 98.2 µM | 57.6 µM | – | – | – | – | – | – | – | – | – | – |
| O=C1CC(C[C@H](O)C2CCCCC2O)CC(=O)N1Cc1ccccc1 (stereo not given in full) | > 100 µM | > 100 µM | > 100 µM | > 100 µM | > 100 µM | > 100 µM | > 100 µM | > 100 µM | > 100 µM | > 100 µM | – | – | – | – | – | – | – | – | – | – |
| O=C(CC(O)(C(F)(F)F)C(F)(F)F)c1cc(CC(=O)C(O)(C(F)(F)F)C(F)(F)F)cc(CC(=O)C(O)(C(F)(F)F)C(F)(F)F)c1 | > 10 µM | 4.56 µM | 4.9 µM | 4.53 µM | > 6.02 µM | 9.55 µM | 6.71 µM | 3.84 µM | > 10 µM | > 10 µM | – | – | – | – | – | – | – | – | – | – |
| CCOC(=O)C(=Cc1cccc(Cl)c1)C(=O)OCC | 4.1 µM | 18 µM | 3.14 µM | 4.26 µM | 4.23 µM | 22.4 µM | 3.54 µM | 4.12 µM | 8.87 µM | 7.96 µM | 2.03 µM | 5.05 µM | 1.66 µM | 1.93 µM | 1890 nM | 10.6 µM | 1.65 µM | 1840 nM | 2.66 µM | 2.54 µM |
| C[C@H]1Oc2cc(cnc2N)-c2c(nn(C)c2C#N)CN(C)C(=O)c2ccc(F)cc21 | > 100 µM | > 100 µM | > 100 µM | > 100 µM | > 100 µM | > 87 µM | > 100 µM | 60.2 µM | > 100 µM | > 100 µM | 35.6 µM | 25.8 µM | 59.5 µM | 36.2 µM | 22800 nM | 22.1 µM | 43.1 µM | 13900 nM | > 100 µM | 27.1 µM |
| O=C(c1ccc(F)c(F)c1Nc1ccc(I)cc1F)N1CC(O)([C@@H]2CCCCN2)C1 | 14.4 µM and > 10 µM | 0.0368 µM and 0.0363 µM | 18.5 µM and > 10 µM | 20.6 µM and > 10 µM | 15.1 µM and > 10 µM | 20.6 µM and > 10 µM | 18.7 µM and > 10 µM | 13.8 µM and > 10 µM | 17.1 µM and > 10 µM | 20.6 µM and > 10 µM | < 0.0215 µM and 0.0563 µM | < 0.01 µM and 0.00413 µM | 3.22 µM and > 9.01 µM | 5.74 µM and 3.82 µM | 463 nM and 637 nM | 5.46 µM and 3.26 µM | 2.03 µM and 1.14 µM | 59.6 nM and 538 nM | 0.58 µM and > 3.96 µM | 5.02 µM and 4.94 µM |
| COc1ccc(-c2oc(=O)ccc2-c2cc(OC)c(OC)c(OC)c2)cc1F | > 100 µM | > 100 µM | 80.3 µM | > 100 µM | > 100 µM | > 100 µM | > 100 µM | 35.8 µM | > 100 µM | > 100 µM | 5.79 µM | 31.5 µM | 19.8 µM | 36.4 µM | 25200 nM | 80 µM | 38.1 µM | 8790 nM | 36.5 µM | 33.6 µM |
| CC(=O)n1c2c(c(=O)n1-c1ccccc1)S(=O)CCC2 (stereo not given) | > 100 µM | > 100 µM | > 100 µM | > 78.6 µM | > 100 µM | > 100 µM | > 100 µM | > 100 µM | 44.4 µM | > 100 µM | – | – | – | – | – | – | – | – | – | – |
| CC1=C2CCCC2=C/C(=N/Nc2ccc([N+](=O)[O-])cc2[N+](=O)[O-])CC1 | > 100 µM | > 100 µM | > 100 µM | > 100 µM | > 100 µM | > 100 µM | > 100 µM | > 100 µM | > 100 µM | > 100 µM | – | – | – | – | – | – | – | – | – | – |
| O=[N+]([O-])c1ccc(-n2nnc(C3=NCCN3)c2-c2ccc(Cl)cc2)cc1 | > 100 µM | > 100 µM | > 100 µM | > 100 µM | > 100 µM | > 100 µM | > 100 µM | > 100 µM | > 100 µM | > 100 µM | – | – | – | – | – | – | – | – | – | – |
| O=c1n(-c2ccccc2)c(=O)n2n1C1C=CC2C2C(C1)C2(Cl)Cl (stereo not given) | > 100 µM | > 100 µM | > 100 µM | > 100 µM | > 100 µM | > 100 µM | > 100 µM | > 100 µM | > 100 µM | > 100 µM | – | – | – | – | – | – | – | – | – | – |
| Cc1ccc(-c2nc3ccc([N+](=O)[O-])cc3[nH]2)cc1 | > 100 µM | > 100 µM | > 100 µM | > 100 µM | > 100 µM | > 100 µM | > 100 µM | > 100 µM | > 100 µM | > 100 µM | – | – | – | – | – | – | – | – | – | – |
| CCN(CC)c1nc(-c2ccc(Cl)cc2Cl)nc2ccccc12 | 34.4 µM | 50.7 µM | 41.9 µM | 61.9 µM | 50.4 µM | > 79.9 µM | 46.2 µM | > 90.5 µM | > 100 µM | > 68.8 µM | 15.5 µM | 17.3 µM | 20.3 µM | 22.2 µM | 15800 nM | 26.5 µM | 17.2 µM | 24900 nM | 51.6 µM | 23.1 µM |
| Cc1c(Cl)cccc1N1C(=O)C(Cl)=C(Cl)C1=O | > 100 µM | > 100 µM | > 100 µM | > 100 µM | > 100 µM | > 100 µM | > 100 µM | > 100 µM | > 100 µM | > 100 µM | – | – | – | – | – | – | – | – | – | – |
| N=c1ccn2c(n1)OC1C(O)C(CO)OC12 (stereo not given) | > 1000 µM | > 1000 µM | > 1000 µM | > 1000 µM | 14 µM and 3.49 µM | > 696 µM | > 621 µM | > 1000 µM | > 1000 µM | > 619 µM | 5.76 µM and 1.28 µM | > 100 µM | 31.9 µM | 0.652 µM | 237 nM | 5.43 µM | 3.13 µM | 3080 nM and 355 nM | > 100 µM | 2.41 µM |
| Cc1ccc(Cn2c(C)nc3c2C(=O)c2ccccc2C3=O)cc1 | > 100 µM | 60.8 µM | 18.7 µM | 19.7 µM | 38.9 µM | 45.6 µM | > 100 µM | > 100 µM | 63.4 µM | 36.9 µM | – | – | – | – | – | – | – | – | – | – |
| CCC1C2C=CC(CC2)N1S(=O)(=O)c1ccc(C)cc1 (stereo not given) | 50.3 µM | 93.5 µM | 76.6 µM | > 100 µM | > 100 µM | 89.6 µM | 36.6 µM | 39.2 µM | > 100 µM | 67.3 µM | – | – | – | – | – | – | – | – | – | – |
